# Assay results as given in US6906074B2, “2-phenylpiperazine derivatives” (Nippon Zoki Pharmaceutical Co., Ltd., priority 2002, dated 2005).
# Marks after values point to notes of the source that are not given here.
# What was measured:
# [1] = test system: Substance P-induced increase of vascular permeability (tachykinin receptor); assay: Substance P-induced increase of vascular permeability in guinea pig skin (Evans Blue dye); assay type: in vivo, guinea pigs; conditions: Substance P 1 pmole/site, 10 mg/kg oral
# Method: (§1) The compounds of the present invention and synthesized LY-303870 were suspended or dissolved in 0.5% sodium carboxymethylcellulose solution, and orally administered at the dose of 5 mL/kg. to male Hartley SPF guinea pigs of 6 week age.
# (§2) Guinea pigs, sheared of fur, were anesthetized with ether and 1% Evan Blue dye in physiological saline (1 mL/500 g b.w.) was injected into their fore-leg intravenously. Immediately after the dye injection, SP (1 pmol/site), NKA (100 pmol/site) and NKB (100 pmol/site) in physiological saline were injected dorsal intradermally (0.05 mL/site) whereby the reaction of increase of vascular permeability was induced. Half an hour after tachykinin challenge, the animals were sacrificed by decapitation and bloodletting, and the dorsal skin was removed and the amount of transuded blue dye thereof was measured. Namely, the blue dyed sites were punched out using a punch for leather (16 mm diameter), of which 2 pieces were allowed to stand at 37° C. overnight in a covered tube with addition of 1 mL of 2 mol/L KOH solution. After stirring well, 6 mL of a mixture of 2 mol/L H3PO4 solution and acetone (1:3) were added thereto and Evans Blue dye was extracted by vigorous shaking for 10 minutes. After the precipitate was filtered off, the absorbance of the filtrate was measured at 620 nm with a spectrophotometer and the amount of dye was determined from the calibration curve. Nonspecific reaction was estimated from the amount of transuded dye by the injection of physiological saline. The significant difference in the average values between the control group and the test compound-treated group was calculated by means of a Student's t-test or Dunnett's test (Statistical Library I, two-sided test, Yukms).
# (§3) The tested compounds were orally administered at a dose of 10 mg/kg at various points from 30 min to 8 hrs before the induction of tachykinin-induced increase of vascular permeability. An example of the results is shown in Table 2 (* and ** stand for the significant difference of p<0.05 and p<0.01 respectively compared to control).
# [2] = test system: Neurokinin A-induced increase of vascular permeability (tachykinin receptor); assay: Neurokinin A-induced increase of vascular permeability in guinea pig skin (Evans Blue dye); assay type: in vivo, guinea pigs; conditions: Neurokinin A 100 pmole/site, 10 mg/kg oral
# Method: as §1, §2, §3
# [3] = test system: Neurokinin B-induced increase of vascular permeability (tachykinin receptor); assay: Neurokinin B-induced increase of vascular permeability in guinea pig skin (Evans Blue dye); assay type: in vivo, guinea pigs; conditions: Neurokinin B 100 pmole/site, 10 mg/kg oral
# Method: as §1, §2, §3
# [4] = molecular target: human NK1 receptors (Homo sapiens, UniProt P25103); assay: Binding assay for human NK1 receptors ((3H)-Sar9-SP, human NK1-CHO cells)
# Sequence of human NK1 receptors (P25103 whole entry): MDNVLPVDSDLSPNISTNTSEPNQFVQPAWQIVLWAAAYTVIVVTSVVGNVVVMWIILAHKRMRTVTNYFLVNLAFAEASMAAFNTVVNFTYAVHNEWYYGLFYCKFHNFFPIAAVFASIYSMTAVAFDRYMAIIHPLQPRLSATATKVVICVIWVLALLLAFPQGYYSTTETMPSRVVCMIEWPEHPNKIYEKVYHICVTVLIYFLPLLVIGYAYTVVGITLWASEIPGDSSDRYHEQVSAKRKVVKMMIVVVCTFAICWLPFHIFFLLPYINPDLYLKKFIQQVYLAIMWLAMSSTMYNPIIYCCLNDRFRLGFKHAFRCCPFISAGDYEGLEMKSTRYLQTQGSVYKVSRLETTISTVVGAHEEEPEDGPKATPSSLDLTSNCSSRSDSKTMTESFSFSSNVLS
# [5] = 0.5 hr from administration to induction
# [6] = 1 hr from administration to induction
# [7] = 2 hr from administration to induction
# [8] = 4 hr from administration to induction
# [9] = 8 hr from administration to induction
# [10] = 3 hr from administration to induction
structure (smiles),measurement,setting,value
"CN1C(=O)CN(Cc2n[nH]c(=O)[nH]2)[C@@H](c2ccccc2)[C@H]1COCc1cc(C(F)(F)F)cc(C(F)(F)F)c1 [Compound 26, (5S,6S)-6-(3,5-Bis(trifluoromethyl)benzyloxymethyl)-1-methyl-4-(5-oxo-4,5-dihydro-1H-(1,2,4)triazol-3-ylmethyl)-5-phenylpiperazin-2-one]","amount of transuded blue dye, Mean ± S.E",[1]; [5],6.2 ± 1.5**
same,"amount of transuded blue dye, Mean ± S.E",[1]; [6],1.4 ± 0.6**
same,"amount of transuded blue dye, Mean ± S.E",[1]; [7],4.3 ± 0.9**
same,"amount of transuded blue dye, Mean ± S.E",[1]; [8],4.9 ± 1.3**
same,"amount of transuded blue dye, Mean ± S.E",[1]; [9],11.9 ± 2.4**
same,"amount of transuded blue dye, Mean ± S.E",[2]; [5],3.6 ± 0.7**
same,"amount of transuded blue dye, Mean ± S.E",[2]; [6],1.0 ± 0.5**
same,"amount of transuded blue dye, Mean ± S.E",[2]; [7],2.6 ± 1.4**
same,"amount of transuded blue dye, Mean ± S.E",[2]; [8],3.6 ± 2.6**
same,"amount of transuded blue dye, Mean ± S.E",[2]; [9],10.1 ± 3.3
same,"amount of transuded blue dye, Mean ± S.E",[3]; [5],1.4 ± 0.9**
same,"amount of transuded blue dye, Mean ± S.E",[3]; [6],0.1 ± 0.1**
same,"amount of transuded blue dye, Mean ± S.E",[3]; [7],0.5 ± 0.4**
same,"amount of transuded blue dye, Mean ± S.E",[3]; [8],1.0 ± 0.4**
same,"amount of transuded blue dye, Mean ± S.E",[3]; [9],9.4 ± 1.6**
same,IC50,[4],0.04 nM
"COc1ccccc1CN(C[C@@H](Cc1c[nH]c2ccccc12)NC(=O)CN1CCC(N2CCCCC2)CC1)C(C)=O [LY-303870, reference compound]","amount of transuded blue dye, Mean ± S.E",[1]; [5],6.3 ± 2.1**
same,"amount of transuded blue dye, Mean ± S.E",[1]; [6],7.8 ± 2.5**
same,"amount of transuded blue dye, Mean ± S.E",[1]; [7],17.0 ± 3.4
same,"amount of transuded blue dye, Mean ± S.E",[1]; [10],12.2 ± 2.2**
same,"amount of transuded blue dye, Mean ± S.E",[1]; [8],14.4 ± 0.9**
same,"amount of transuded blue dye, Mean ± S.E",[2]; [5],5.3 ± 2.3**
same,"amount of transuded blue dye, Mean ± S.E",[2]; [6],5.8 ± 1.9**
same,"amount of transuded blue dye, Mean ± S.E",[2]; [7],14.5 ± 5.0
same,"amount of transuded blue dye, Mean ± S.E",[2]; [10],11.1 ± 4.3
same,"amount of transuded blue dye, Mean ± S.E",[2]; [8],10.8 ± 3.4
same,"amount of transuded blue dye, Mean ± S.E",[3]; [5],2.0 ± 1.2**
same,"amount of transuded blue dye, Mean ± S.E",[3]; [6],5.0 ± 2.2**
same,"amount of transuded blue dye, Mean ± S.E",[3]; [7],12.0 ± 3.2*
same,"amount of transuded blue dye, Mean ± S.E",[3]; [10],7.7 ± 1.8**
same,"amount of transuded blue dye, Mean ± S.E",[3]; [8],13.6 ± 1.1**
"O=C1CN(Cc2n[nH]c(=O)[nH]2)[C@@H](c2ccc(F)cc2)[C@@H](COCc2cc(C(F)(F)F)cc(C(F)(F)F)c2)N1 [Compound 40, (5S,6S)-6-(3,5-Bis(trifluoromethyl)benzyloxymethyl)-5-(4-fluorophenyl)-4-(5-oxo-4,5-dihydro-1H-(1,2,4)triazol-3-ylmethyl)piperazin-2-one]",melting point,,138 to 140 °C
"O=C1CN(Cc2n[nH]c(=O)[nH]2)[C@@H](c2ccccc2)[C@@H](COCc2cc(C(F)(F)F)cc(C(F)(F)F)c2)N1 [Compound 12, (5S,6S)-6-(3,5-Bis(trifluoromethyl)benzyloxymethyl)-4-(5-oxo-4,5-dihydro-1H-(1,2,4)triazol-3-ylmethyl)-5-phenylpiperazin-2-one]",IC50,[4],1.5 nM
CN(C)Cc1[nH]nnc1CN1CC(=O)N(C)[C@H](COCc2cc(C(F)(F)F)cc(C(F)(F)F)c2)[C@@H]1c1ccc(F)cc1.Cl.Cl,melting point,,142 to 145 °C
Cl.O=C1CN[C@@H](c2ccccc2)[C@@H](COCc2cc(C(F)(F)F)cc(C(F)(F)F)c2)N1,melting point,,219 to 221 °C
"O=C1CN(Cc2n[nH]c(=O)[nH]2)[C@H](c2ccccc2)[C@H](COCc2cc(C(F)(F)F)cc(C(F)(F)F)c2)N1 [Compound 27, (5R,6R)-6-(3,5-Bis(trifluoromethyl)benzyloxymethyl)-4-(5-oxo-4,5-dihydro-1H-(1,2,4)triazol-3-ylmethyl)-5-phenylpiperazin-2-one]",melting point,,138 to 140 °C
"CN1C(=O)CN(Cc2n[nH]c(=O)[nH]2)[C@@H](c2ccc(F)cc2)[C@H]1COCc1cc(C(F)(F)F)cc(C(F)(F)F)c1 [Compound 38, (5S,6S)-6-(3,5-Bis(trifluoromethyl)benzyloxymethyl)-5-(4-fluorophenyl)-1-methyl-4-(5-oxo-4,5-dihydro-1H-(1,2,4)triazol-3-ylmethyl)piperazin-2-one]",melting point,,212 to 213 °C
CN(C)Cc1[nH]nnc1CN1CC(=O)N[C@H](COCc2cc(C(F)(F)F)cc(C(F)(F)F)c2)[C@@H]1c1ccc(F)cc1.Cl.Cl,melting point,,213 to 216 °C
"O=C1CN(Cc2n[nH]c(=O)[nH]2)[C@@H](c2ccc(F)cc2)[C@@H](COCc2cc(C(F)(F)F)cc(C(F)(F)F)c2)N1 [Compound 32, (5S,6S)-6-(3,5-Bis(trifluoromethyl)benzyloxymethyl)-5-(4-fluorophenyl)-4-(5-oxo-4,5-dihydro-1H-(1,2,4)triazol-3-ylmethyl)piperazin-2-one]",melting point,,129 to 132 °C
same,IC50,[4],0.24 nM
